Experimental findings from US7531671B2, “Dihydroisoindolones as allosteric modulators of glucokinase” (Janssen Pharmaceutica N.V., priority 2005, dated 2009) are described below.

The experiment deals with T1, human pancreas Glucokinase (GK) (Homo sapiens, UniProt P35557).
T1 construct: (His)6; made in house; host or cells: Escherichia coli
T1 sequence (P35557 1-465): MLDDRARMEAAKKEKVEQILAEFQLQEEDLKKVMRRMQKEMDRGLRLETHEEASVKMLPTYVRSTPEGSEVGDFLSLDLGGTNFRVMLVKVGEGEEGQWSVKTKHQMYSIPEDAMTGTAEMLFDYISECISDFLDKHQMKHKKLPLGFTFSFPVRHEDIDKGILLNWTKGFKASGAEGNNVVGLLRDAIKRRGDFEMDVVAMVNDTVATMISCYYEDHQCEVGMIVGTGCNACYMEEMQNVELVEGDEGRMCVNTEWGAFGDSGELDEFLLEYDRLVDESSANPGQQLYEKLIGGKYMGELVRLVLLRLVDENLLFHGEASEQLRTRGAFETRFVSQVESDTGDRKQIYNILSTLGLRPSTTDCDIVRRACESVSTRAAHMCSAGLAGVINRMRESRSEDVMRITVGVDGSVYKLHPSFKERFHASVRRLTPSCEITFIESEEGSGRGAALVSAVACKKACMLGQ
Nature of the experiment: Glucokinase enzyme assay, Pancreas GK data. The experiment is classed as biochemical. To be noted: for activation at 50 µM: compound 50 μM, percentage increase in GK activity above vehicle control, 12 mM glucose; for EC50: concentration producing 50% activation above vehicle control; for EC100%: concentration producing 100% activation above vehicle control. The text has this: An enzymatic Glucokinase (GK) assay using purified recombinant human liver/pancreas enzyme was used to evaluate the effects of potential small molecule modulators.
In this assay, GK catalyzes glucose phosphorylation in the presence of ATP. The product of this reaction, glucose-6-phosphate, was then oxidized by an excess of glucose-6-phosphate dehydrogenase to produce gluconate-6-phosphate with concomitant reduction of nicotinamide adenine dinucleotide (NAD). […] Human GK (Liver/Pancreas) was expressed in Escherichia coli as a (His) 6-tagged fusion protein and was purified by metal chelate affinity chromatography. The assay was performed in a final incubation volume of 80 μl in a 96-well clear low UV absorption plates. The incubation mixture consisted of 25 mM HEPES, 2 mM MgSO4, 1 mM dithiothreotol (DTT), 1 mg/ml bovine serum albumin (BSA), 1 mM ATP, 1 mM NAD, and 12 mM glucose, 10 units per ml glucose-6-phosphate dehydrogenase, and +/−300 ng per ml GK. For determination of the affinity (Km) and Vmax, different concentrations of glucose ranging from 0.5 mM to 40 mM were used in the assay; see Grimsby, J., Sarabu, R.; Grippo, J. F.; et. al. Science 2003, 301, 370-373. Production of reduced NAD (Nicotinamide Adenine Dinucleotide) was measured as changes in absorption at 340 nm in 96-well plate reader (Envision model # 2101 Multilabel Plate reader). % Activation @ 50 μM was calculated as the percentage increase in GK activity above the vehicle control with the effective concentration of the compound being 50 μM. EC50% (μM) was calculated as the effective concentration of the compound that produces 50% activation above the vehicle control, and EC100% (μM) was calculated as the effective concentration of the compound that produces 100% activation above the vehicle control.

In the case of `CN(C)c1ccc(CN2C(=O)c3cccc(F)c3C2SCC(=O)Nc2ccccn2)cc1` (stereo not drawn) [Compound 51, 2-[2-(4-Dimethylaminobenzyl)-7-fluoro-3-oxo-2,3-dihydro-1H-isoindol-1-ylsulfanyl]-N-pyridin-2-yl-acetamide], the activation at 50 µM is 161%, the EC50 stood at 360 nM and the “EC100%” value was 1.7 µM.
Taken in the same sequence, the figures for `COc1ccc(CN2C(=O)c3ccccc3C2SCC(=O)Nc2ccc(C(=O)O)cn2)cc1` (stereo not drawn) [Compound 55, 6-{2-[2-(4-Methoxybenzyl)-3-oxo-2,3-dihydro-1H-isoindol-1-ylsulfanyl]-acetylamino}-nicotinic acid] were 246%, 1350 nM and 3.4 µM.
Molecule `Cc1ccc2c(c1)C(OCC(=O)Nc1cnccn1)N(Cc1ccccc1)C2=O` (stereo not drawn) [Compound 58, 2-(2-Benzyl-6-methyl-3-oxo-2,3-dihydro-1H-isoindol-1-yloxy)-N-pyrazin-2-yl-acetamide] had an activation at 50 µM of 70% and an EC50 of 27000 nM.
Turning to `O=C(CSC1c2ccccc2C(=O)N1Cc1ccc(OC(F)(F)F)cc1)Nc1ccccn1` (stereo not drawn) [Compound 48, 2-[3-Oxo-2-(4-trifluoromethoxybenzyl)-2,3-dihydro-1H-isoindol-1-ylsulfanyl]-N-pyridin-2-yl-acetamide], the activation at 50 µM was found to be 174%, the EC50 was found to be 1600 nM and the “EC100%” value came out at 6.9 µM.
For `O=C(CSC1c2ccccc2C(=O)N1Cc1cccc2ccccc12)Nc1ccccn1` (stereo not drawn) [Compound 43, 2-(2-Naphthalen-1-ylmethyl-3-oxo-2,3-dihydro-1H-isoindol-1-ylsulfanyl)-N-pyridin-2-yl-acetamide] the same measures were 112%, 4000 nM and 7.1 µM.
For the molecule `COC(=O)c1ccc(NC(=O)COC2c3cc(C)ccc3C(=O)N2Cc2ccccc2)nc1` (stereo not drawn) [Compound 59], the activation at 50 µM is 127%, the EC50 turned out to be 3300 nM and the “EC100%” value stood at 20.58 µM.
On to `COc1ccc(CN2C(=O)c3ccccc3C2SCC(=O)Nc2ccccn2)cc1` (stereo not drawn) [Compound 49, 2-[2-(4-Methoxybenzyl)-3-oxo-2,3-dihydro-1H-isoindol-1-ylsulfanyl]-N-pyridin-2-yl-acetamide], for which the activation at 50 µM was 250%, the EC50 was 210 nM and the “EC100%” value was 0.86 µM.
For `COc1cc(CN2C(=O)c3ccccc3C2SCC(=O)Nc2ccccn2)cc(OC)c1OC` (stereo not drawn) [Compound 39, 2-[3-Oxo-2-(3,4,5-trimethoxy-benzyl)-2,3-dihydro-1H-isoindol-1-ylsulfanyl]-N-pyridin-2-yl-acetamide] the same measures were 193%, 1400 nM and 5.3 µM.
Take `COc1ccc(CN2C(=O)c3ccccc3C2SCC(=O)Nc2ccc(C(=O)O)cn2)cc1OC` (stereo not drawn) [Compound 56, 6-{2-[2-(3,4-Dimethoxybenzyl)-3-oxo-2,3-dihydro-1H-isoindol-1-ylsulfanyl]-acetylamino}-nicotinic acid]: the activation at 50 µM is 219%, the EC50 was 850 nM and the “EC100%” value is 2.7 µM.
`CCCCN1C(=O)c2ccccc2C1OCC(=O)Nc1nccs1` (stereo not drawn) [Compound 53, 2-(2-Butyl-3-oxo-2,3-dihydro-1H-isoindol-1-yloxy)-N-thiazol-2-yl-acetamide]: the activation at 50 µM stood at 101% and the EC50 was 18300 nM.
In the case of `O=C(CSC1c2ccccc2C(=O)N1Cc1ccc(N2CCCC2=O)cc1)Nc1ccccn1` (stereo not drawn) [Compound 40, 2-{3-Oxo-2-[4-(2-oxo-pyrrolidin-1-yl)-benzyl]-2,3-dihydro-1H-isoindol-1-ylsulfanyl}-N-pyridin-2-yl-acetamide], the activation at 50 µM came out at 109%, the EC50 was 2100 nM and the “EC100%” value amounted to 16.1 µM.
On to `Cc1ccc2c(c1)C(OCC(=O)Nc1ccccn1)N(Cc1ccccc1)C2=O` (stereo not drawn) [Compound 61, 2-(2-Benzyl-6-methyl-3-oxo-2,3-dihydro-1H-isoindol-1-yloxy)-N-pyridin-2-yl-acetamide], for which the activation at 50 µM is 8.4% and the EC50 was determined as 26000 nM.
